From ChEMBL document CHEMBL3879901, “Substituted isoquinolin-1(2H)-ones, and methods of use thereof” (2012)

Legend:
[1] = molecular target: PI3-kinase p110-delta/p85-alpha (Homo sapiens, UniProt O00329); test: Inhibition of N-terminal His6-tagged recombinant full-length human p110delta/untagged recombinant full length p85alpha expressed in baculovirus infected Sf21 cells using phosphatidylinositol as substrate in presence of gamma-32P-ATP after 5 mins by thin layer chromatographic method
[2] = molecular target: PI3-kinase p110-alpha/p85-alpha (Homo sapiens, UniProt P42336); test: Inhibition of N-terminal His6-tagged recombinant full-length human p110alpha/untagged recombinant full length human p85alpha expressed in baculovirus infected Sf21 cells using phosphatidylinositol as substrate in presence of gamma-32P-ATP after 5 mins by thin layer chromatographic method
Chain of PI3-kinase p110-alpha/p85-alpha (P27986 whole entry): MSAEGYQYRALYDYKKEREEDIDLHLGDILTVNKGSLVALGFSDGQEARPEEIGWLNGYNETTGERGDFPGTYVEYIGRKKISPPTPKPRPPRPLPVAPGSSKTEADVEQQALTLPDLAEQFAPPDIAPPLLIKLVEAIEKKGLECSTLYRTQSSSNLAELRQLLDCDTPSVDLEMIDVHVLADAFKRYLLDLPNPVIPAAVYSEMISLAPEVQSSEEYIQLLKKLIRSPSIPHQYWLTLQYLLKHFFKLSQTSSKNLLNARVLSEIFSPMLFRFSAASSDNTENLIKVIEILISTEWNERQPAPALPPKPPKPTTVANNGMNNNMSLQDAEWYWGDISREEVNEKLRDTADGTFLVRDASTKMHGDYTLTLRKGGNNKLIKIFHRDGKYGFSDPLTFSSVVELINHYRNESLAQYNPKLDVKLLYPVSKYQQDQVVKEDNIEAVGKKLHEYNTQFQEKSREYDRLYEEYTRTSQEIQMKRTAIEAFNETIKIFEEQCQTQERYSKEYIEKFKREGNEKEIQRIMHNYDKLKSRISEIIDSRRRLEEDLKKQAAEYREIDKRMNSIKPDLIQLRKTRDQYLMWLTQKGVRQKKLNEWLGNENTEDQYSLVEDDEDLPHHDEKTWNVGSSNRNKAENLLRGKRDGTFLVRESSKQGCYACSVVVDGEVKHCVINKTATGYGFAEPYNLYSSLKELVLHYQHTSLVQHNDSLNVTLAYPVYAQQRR
Chain of PI3-kinase p110-alpha/p85-alpha (P42336 whole entry): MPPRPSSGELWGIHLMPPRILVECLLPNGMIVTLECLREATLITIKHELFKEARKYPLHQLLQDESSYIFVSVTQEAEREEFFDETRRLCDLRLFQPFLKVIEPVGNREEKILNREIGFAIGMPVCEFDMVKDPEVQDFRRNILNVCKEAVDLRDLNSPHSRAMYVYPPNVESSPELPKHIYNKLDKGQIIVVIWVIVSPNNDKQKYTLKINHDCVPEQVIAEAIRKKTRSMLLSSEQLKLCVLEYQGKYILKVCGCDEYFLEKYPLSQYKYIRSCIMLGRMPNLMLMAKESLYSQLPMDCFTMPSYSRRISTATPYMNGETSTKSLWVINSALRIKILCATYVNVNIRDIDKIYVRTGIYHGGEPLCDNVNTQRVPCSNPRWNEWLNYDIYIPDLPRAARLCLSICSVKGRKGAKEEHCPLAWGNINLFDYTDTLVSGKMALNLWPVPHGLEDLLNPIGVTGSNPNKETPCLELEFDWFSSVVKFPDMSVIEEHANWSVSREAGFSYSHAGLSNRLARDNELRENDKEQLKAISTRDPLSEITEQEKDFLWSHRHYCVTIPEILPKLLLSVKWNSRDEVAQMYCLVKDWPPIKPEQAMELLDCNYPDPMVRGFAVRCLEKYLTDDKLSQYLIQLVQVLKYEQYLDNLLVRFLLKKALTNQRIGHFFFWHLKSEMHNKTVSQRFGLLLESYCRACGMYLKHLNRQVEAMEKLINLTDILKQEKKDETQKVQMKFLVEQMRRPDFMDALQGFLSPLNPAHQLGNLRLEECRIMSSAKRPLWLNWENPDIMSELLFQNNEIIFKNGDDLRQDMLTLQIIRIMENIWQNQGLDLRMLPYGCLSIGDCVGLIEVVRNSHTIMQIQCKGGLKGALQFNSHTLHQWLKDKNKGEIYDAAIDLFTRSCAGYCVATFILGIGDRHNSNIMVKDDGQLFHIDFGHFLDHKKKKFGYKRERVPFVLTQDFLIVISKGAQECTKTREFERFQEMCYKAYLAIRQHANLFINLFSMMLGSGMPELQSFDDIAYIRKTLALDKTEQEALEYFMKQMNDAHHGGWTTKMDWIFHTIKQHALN

PI3K p110 beta/p85 alpha = PI3K p110 beta/p85 alpha (Homo sapiens, UniProt P42338); test: Inhibition of N-terminal His6-tagged recombinant full-length human p110beta/untagged recombinant full length p85alpha expressed in baculovirus infected Sf21 cells using phosphatidylinositol as substrate in presence of gamma-32P-ATP after 5 mins by thin layer chromatographic method
Chain of PI3K p110 beta/p85 alpha (P27986 whole entry): as the sequence (P27986 whole entry) above
Chain of PI3K p110 beta/p85 alpha (P42338 whole entry): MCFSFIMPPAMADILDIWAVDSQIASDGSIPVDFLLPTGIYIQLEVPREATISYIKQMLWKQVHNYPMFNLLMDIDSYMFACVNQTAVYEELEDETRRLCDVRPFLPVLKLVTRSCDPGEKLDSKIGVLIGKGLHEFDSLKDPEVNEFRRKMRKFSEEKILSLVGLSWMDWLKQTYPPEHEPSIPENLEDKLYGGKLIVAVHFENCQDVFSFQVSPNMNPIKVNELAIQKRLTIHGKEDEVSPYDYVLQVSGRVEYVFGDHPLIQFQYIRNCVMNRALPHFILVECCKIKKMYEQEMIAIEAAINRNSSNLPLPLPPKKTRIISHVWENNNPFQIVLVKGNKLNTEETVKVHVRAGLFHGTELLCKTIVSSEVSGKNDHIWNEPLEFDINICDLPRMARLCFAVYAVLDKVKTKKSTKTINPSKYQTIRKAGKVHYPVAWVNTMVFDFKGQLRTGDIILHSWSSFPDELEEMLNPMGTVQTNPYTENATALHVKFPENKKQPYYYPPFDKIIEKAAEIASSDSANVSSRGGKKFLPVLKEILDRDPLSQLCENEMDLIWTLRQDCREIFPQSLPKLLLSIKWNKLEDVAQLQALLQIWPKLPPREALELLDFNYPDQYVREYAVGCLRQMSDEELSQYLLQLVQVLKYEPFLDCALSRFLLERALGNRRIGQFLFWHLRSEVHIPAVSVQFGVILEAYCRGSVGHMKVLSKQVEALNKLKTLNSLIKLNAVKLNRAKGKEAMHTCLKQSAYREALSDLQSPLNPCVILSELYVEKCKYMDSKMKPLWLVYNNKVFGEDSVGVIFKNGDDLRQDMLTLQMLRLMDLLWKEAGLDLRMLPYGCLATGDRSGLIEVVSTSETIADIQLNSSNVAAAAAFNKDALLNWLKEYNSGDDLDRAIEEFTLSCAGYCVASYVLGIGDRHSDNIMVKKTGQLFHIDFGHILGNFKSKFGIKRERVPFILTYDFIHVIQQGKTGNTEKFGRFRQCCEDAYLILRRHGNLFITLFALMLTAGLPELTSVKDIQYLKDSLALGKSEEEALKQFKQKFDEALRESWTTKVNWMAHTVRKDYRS

[3] = Antiproliferative activity against Balb/c mouse splenic B cells preincubated for 30 mins followed by LPS or F(ab')2 donkey anti-mouse IgM and recombinant mouse IL4 stimulation measured after 72 hrs by Alamar Blue reduction assay; format: functional, cell-based

Chain of PI3-kinase p110-delta/p85-alpha (P27986 whole entry): as the sequence (P27986 whole entry) above
Chain of PI3-kinase p110-delta/p85-alpha (O00329 whole entry): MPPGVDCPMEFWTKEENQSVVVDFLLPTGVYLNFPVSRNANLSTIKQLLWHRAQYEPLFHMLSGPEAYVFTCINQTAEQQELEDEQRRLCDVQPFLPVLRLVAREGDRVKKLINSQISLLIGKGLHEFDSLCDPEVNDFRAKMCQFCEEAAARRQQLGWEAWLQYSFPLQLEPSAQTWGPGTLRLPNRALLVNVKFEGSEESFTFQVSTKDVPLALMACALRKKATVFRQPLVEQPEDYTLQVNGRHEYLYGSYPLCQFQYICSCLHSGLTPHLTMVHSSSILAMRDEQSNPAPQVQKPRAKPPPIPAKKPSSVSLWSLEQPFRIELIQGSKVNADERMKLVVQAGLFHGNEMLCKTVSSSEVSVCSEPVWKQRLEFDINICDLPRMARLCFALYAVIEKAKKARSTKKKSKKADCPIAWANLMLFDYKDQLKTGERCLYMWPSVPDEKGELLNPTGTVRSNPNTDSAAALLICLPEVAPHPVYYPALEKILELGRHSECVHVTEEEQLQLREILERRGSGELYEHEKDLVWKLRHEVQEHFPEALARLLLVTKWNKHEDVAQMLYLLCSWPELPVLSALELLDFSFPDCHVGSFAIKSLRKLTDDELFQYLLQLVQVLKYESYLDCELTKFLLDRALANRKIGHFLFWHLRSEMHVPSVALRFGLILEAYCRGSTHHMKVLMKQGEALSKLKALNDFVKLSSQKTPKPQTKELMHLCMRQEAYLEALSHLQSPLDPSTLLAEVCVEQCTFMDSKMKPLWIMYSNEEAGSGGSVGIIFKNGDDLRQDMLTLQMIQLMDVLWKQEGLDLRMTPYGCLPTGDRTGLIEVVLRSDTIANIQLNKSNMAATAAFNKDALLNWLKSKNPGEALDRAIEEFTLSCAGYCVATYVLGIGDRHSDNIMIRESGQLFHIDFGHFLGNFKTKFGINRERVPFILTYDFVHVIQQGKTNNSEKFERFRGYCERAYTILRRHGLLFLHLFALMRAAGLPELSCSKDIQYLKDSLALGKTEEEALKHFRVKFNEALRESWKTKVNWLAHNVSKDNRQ

SMILES | IC50 [1] | IC50 [2] | IC50 (PI3K p110 beta/p85 alpha) | EC50 [3]
Cc1ccccc1-n1c(Cn2nc(-c3ccc(Cl)c(O)c3)c3c(N)ncnc32)cc2ccccc2c1=O | < 100 nM | > 10000 nM | > 10000 nM | –
Cc1ccccc1-n1c(Cn2nc(I)c3c(N)ncnc32)cc2ccccc2c1=O | < 1000 nM | > 10000 nM | – | < 1000 nM
Cc1cccc2cc(Cn3nc(I)c4c(N)ncnc43)n(-c3ccccc3C(C)C)c(=O)c12 | < 100 nM | – | < 10000 nM | < 100 nM
Cc1cccc2cc(Cn3nc(-c4cccc(O)c4)c4c(N)ncnc43)n(-c3ccccc3C(C)C)c(=O)c12 | < 100 nM | > 10000 nM | – | < 100 nM
CNC(=O)Nc1nc2ccc(-c3nn(Cc4cc5cccc(C)c5c(=O)n4-c4ccccc4C)c4ncnc(N)c34)cc2s1 | < 100 nM | < 100000 nM | – | < 100 nM
Cc1cccc2cc(C(C)Nc3ncnc4[nH]cnc34)n(-c3cc(F)cc(F)c3)c(=O)c12 (configuration not stated) | < 100 nM | – | – | < 100 nM
CC(=O)Nc1nc2ccc(-c3nn(Cc4cc5cccc(C)c5c(=O)n4-c4cccc(F)c4)c4ncnc(N)c34)cc2s1 | < 100 nM | – | < 10000 nM | < 100 nM
Cc1ccccc1-n1c(Cn2nc(Br)c3c(N)ncnc32)cc2cccc(C)c2c1=O | < 100 nM | > 10000 nM | – | < 1000 nM
Cc1ccccc1-n1c(Cn2nc(-c3cccc(O)c3)c3c(N)nccc32)cc2cccc(C)c2c1=O | < 100 nM | – | – | < 1000 nM
Cc1cccc2cc(Cn3nc(-c4cccc(Cl)c4)c4c(N)ncnc43)n(-c3ccccc3F)c(=O)c12 | < 10000 nM | – | > 10000 nM | > 10000 nM
Cc1ccccc1-n1c(Cn2nc(C#C[C@@H](C)O)c3c(N)ncnc32)cc2ccccc2c1=O | < 1000 nM | > 10000 nM | – | < 1000 nM
Cc1cccc2cc(C(C)Nc3ncnc4[nH]cnc34)n(C3CCN(C)CC3)c(=O)c12 (configuration not stated) | < 100 nM | – | – | < 100 nM
Nc1ncnc2c1c(-c1cccc(O)c1)nn2Cc1cc2cccc(Cl)c2c(=O)n1C1CC1 | < 100 nM | – | – | < 100 nM
CC(C)n1c(Cn2nc(-c3cccc(O)c3)c3c(N)ncnc32)cc2cccc(Cl)c2c1=O | < 100 nM | – | – | < 100 nM
Cc1cccc2cc(Cn3nc(-c4ccc(F)c(O)c4)c4c(N)ncnc43)n(C3CCCC3)c(=O)c12 | < 100 nM | > 10000 nM | > 10000 nM | –
CC(C)n1c(Cn2nc(-c3cc(O)cc(F)c3)c3c(N)ncnc32)cc2ccccc2c1=O | < 100 nM | – | – | < 100 nM
C=Cc1nn(Cc2cc3cccc(C)c3c(=O)n2-c2ccccc2)c2ncnc(N)c12 | < 100 nM | – | – | < 100 nM
CC(C)n1c(Cn2nc(-c3cccc(O)c3)c3c(N)ncnc32)cc2ccccc2c1=O | < 100 nM | – | – | < 1000 nM
Nc1ncnc2c1c(-c1cc(O)cc(F)c1)nn2Cc1cc2cccc(F)c2c(=O)n1-c1ccccc1F | < 100 nM | – | – | < 100 nM
CCC(Nc1ncnc2[nH]cnc12)c1cc2cccc(C)c2c(=O)n1C1CCC1 (configuration not stated) | < 100 nM | – | – | < 1000 nM
CCc1nn(Cc2cc3cccc(C)c3c(=O)n2-c2ccccc2)c2ncnc(N)c12 | < 100 nM | – | – | < 100 nM
Cc1cccc2cc(Cn3nc(-c4cc(O)cc(F)c4)c4c(N)ncnc43)n(C)c(=O)c12 | < 100 nM | – | – | < 100 nM
Cc1cccc2cc(C(C)Nc3nc(N)nc4[nH]cnc34)n(-c3ccccc3)c(=O)c12 (configuration not stated) | – | – | < 100 nM | –
Cc1ccccc1-n1c(Cn2nc(-c3cccc(O)c3)c3c(N)ncnc32)cc2cccc(F)c2c1=O | < 100 nM | > 10000 nM | > 10000 nM | –
CCC(Nc1ncnc2[nH]cnc12)c1cc2cccc(C)c2c(=O)n1C(C)C (configuration not stated) | < 100 nM | – | – | < 100 nM
Cc1cccc2cc(Cn3nc(-c4cccc(O)c4)c4c(N)ncnc43)n(C)c(=O)c12 | < 100 nM | – | – | < 1000 nM
Nc1ncnc2c1c(I)nn2Cc1cc2cccc(Cl)c2c(=O)n1C1CC1 | < 100 nM | – | – | < 100 nM
Cc1cccc2cc(Cn3nc(-c4ccc(Cl)c(O)c4)c4c(N)ncnc43)n(C(C)C)c(=O)c12 | < 100 nM | – | – | < 100 nM

SMILES | IC50 [1] | IC50 [2] | IC50 (PI3K p110 beta/p85 alpha) | EC50 [3]
Cc1cccc2cc(Cn3nc(-c4cn[nH]c4)c4c(N)ncnc43)n(-c3ccccc3)c(=O)c12 | < 100 nM | – | – | < 100 nM
Cc1cccc2cc(C(C)Nc3ncnc4[nH]cnc34)n(C3CCOCC3)c(=O)c12 (configuration not stated) | < 100 nM | – | – | < 100 nM
CCC(Nc1ncnc2[nH]cnc12)c1cc2cccc(C)c2c(=O)n1-c1ccccc1C (configuration not stated) | < 100 nM | – | – | < 100 nM
Cc1cccc2cc(C(C)Nc3ncnc4[nH]cnc34)n(CCN3CCCC3)c(=O)c12 (configuration not stated) | < 100 nM | – | – | < 100 nM
Cc1cccc2cc(C(C)Nc3ncnc4[nH]cnc34)n(CCN3CCOCC3)c(=O)c12 (configuration not stated) | < 100 nM | – | – | < 100 nM
CCc1nn(Cc2cc3cccc(C)c3c(=O)n2-c2ccccc2C)c2ncnc(N)c12 | < 100 nM | – | – | < 1000 nM
Cc1cccc2cc(Cn3nc(C(F)F)c4c(N)ncnc43)n(-c3ccccc3)c(=O)c12 | < 100 nM | – | – | < 100 nM
Cc1cccc2cc([C@H](C)Nc3nc(F)nc4[nH]cnc34)n(C3CC3)c(=O)c12 | < 100 nM | – | < 100 nM | –
Cc1cccnc1-n1c(Cn2nc(I)c3c(N)ncnc32)cc2cccc(C)c2c1=O | – | > 10000 nM | – | < 1000 nM
Cc1cccc2cc([C@H](C)Nc3ncnc4[nH]cnc34)n(-c3ccc(F)cc3)c(=O)c12 | – | – | < 100 nM | –
Cc1ccccc1-n1c(Cn2nc(-c3ccc(O)c(F)c3)c3c(N)ncnc32)cc2cccc(C)c2c1=O | < 100 nM | > 10000 nM | – | < 1000 nM
Cc1cccc2cc(C(C)Nc3ncnc4[nH]cnc34)n(-c3cccc(F)c3)c(=O)c12 (configuration not stated) | < 100 nM | – | – | < 100 nM
Cc1ccccc1-n1c(Cn2nc(CC#N)c3c(N)ncnc32)cc2cccc(C)c2c1=O | < 100 nM | – | – | < 1000 nM
Cc1cccc2cc(Cn3nc(-c4cc(O)cc(F)c4)c4c(N)ncnc43)n(C3CCOCC3)c(=O)c12 | < 100 nM | – | – | < 100 nM
Cc1cccc2cc(C(C)Nc3ncnc4[nH]cnc34)n(C(C)C)c(=O)c12 (configuration not stated) | < 100 nM | – | – | < 100 nM
Cc1ccccc1-n1c(Cn2nc(-c3cc(O)cc(F)c3)c3c(N)ncnc32)cc2ccccc2c1=O | < 100 nM | – | – | < 100 nM
CCc1ccccc1-n1c(Cn2nc(I)c3c(N)ncnc32)cc2cccc(C)c2c1=O | < 100 nM | – | < 10000 nM | < 1000 nM
Cc1ccccc1-n1c(Cn2nc(-c3ccc(F)c(O)c3)c3c(N)ncnc32)cc2cccc(F)c2c1=O | < 100 nM | > 10000 nM | > 10000 nM | –
Cc1cccc2cc([C@H](C)Nc3nc(Cl)nc4[nH]cnc34)n(C3CC3)c(=O)c12 | < 100 nM | – | < 100 nM | –
Cc1cccc2cc(C(C)Nc3ncnc4[nH]cnc34)n(C3CCC3)c(=O)c12 (configuration not stated) | < 100 nM | – | – | < 100 nM
Cc1ccccc1-n1c(Cn2nc(-c3ccc4cc[nH]c4c3)c3c(N)ncnc32)cc2cccc(C)c2c1=O | < 100 nM | > 10000 nM | – | < 1000 nM
Cc1cccnc1-n1c(Cn2nc(-c3cc(O)cc(F)c3)c3c(N)ncnc32)cc2cccc(C)c2c1=O | < 100 nM | > 10000 nM | – | < 100 nM
Cc1cccc2cc(C(C)Nc3ncnc4[nH]cnc34)n(-c3ccccc3F)c(=O)c12 (configuration not stated) | < 100 nM | – | < 10000 nM | < 100 nM
Cc1ccccc1-n1c(Cn2nc(-c3cnc4[nH]ccc4c3)c3c(N)ncnc32)cc2cccc(C)c2c1=O | < 100 nM | > 10000 nM | – | < 100 nM
CC(C)n1c(Cn2nc(-c3cc(O)cc(F)c3)c3c(N)ncnc32)cc2cccc(F)c2c1=O | < 100 nM | – | – | < 100 nM
COc1ccc(-c2nn(Cc3cc4cccc(C)c4c(=O)n3-c3ccccc3C)c3ncnc(N)c23)cc1 | < 1000 nM | > 10000 nM | – | < 1000 nM
Cc1cccc2cc(C(C)Nc3ncnc4[nH]cnc34)n(-c3c(F)cccc3F)c(=O)c12 (configuration not stated) | < 100 nM | – | – | < 100 nM
